For four molecules, IC50 and CC50 results are on record in publication PMC6446940 (ChemMedChem, 2018).

Read-outs that look alike come from different tables or passages of the source.

In data set [1] the test system is HIV-1 Env pseudovirus QA013.70I.ENV.H1. Put plainly: Single-cycle assay TZM-bl, Env pseudovirus panel.
Data set [2] deals with HIV-1 Env pseudovirus HIV-00836-2, clone 5. Put plainly: Single-cycle assay TZM-bl, Env pseudovirus panel.
For data set [3], the system named is HIV-1 Env pseudovirus Q259ENV.W6. Kind of data set: Single-cycle assay TZM-bl, Env pseudovirus panel.
The subject of data set [4] is MT-2 cells. Kind of data set: Cytotoxicity. Type of data set: cell-based, human. The following applies: read-out: MT-2 CC50, MTS, mean ± SD, n=3.
Data set [5] concerns HIV-1 Env pseudovirus QA790.204I.ENV.A4. Kind of data set: Single-cycle assay TZM-bl, Env pseudovirus panel.
The subject of data set [6] is HIV-1 Env pseudovirus MJ613.W0M.ENV.A2. Put plainly: Single-cycle assay, Paired Infant and Maternal Env clones.
Data set [7] relates to HIV-1LAI. Put plainly: Multi-cycle infection assay in PBMC. The following applies: read-out: IC50 HIV-1LAI; human PBMC; CXCR4-tropic lab-adapted virus; p24, 7 days.
The test system of data set [8] is HIV-1 Env pseudovirus PVO, clone 4. Put plainly: Single-cycle assay TZM-bl, Env pseudovirus panel.
Data set [9] has as its system panel of HIV-1 Env pseudoviruses. Type of data set: cell-based.
Data set [10] concerns human PBMC. Put plainly: Cytotoxicity. The format is cell-based. The following applies: human PBMC, 7 days, MTS.
The subject of data set [11] is HIV-1 Env pseudovirus BJ613.W6M.ENV.E1. Put plainly: Single-cycle assay, Paired Infant and Maternal Env clones.
In data set [12] the test system is HIV-1 Env pseudovirus QA790.204I.ENV.E2. Kind of data set: Single-cycle assay TZM-bl, Env pseudovirus panel.
Data set [13] has as its target HIV-1 Reverse Transcriptase (RT) (Human immunodeficiency virus type 1 group M subtype B, UniProt P04585). Kind of data set: biochemical. The format is biochemical.
Data set [14] has as its system HIV-1 Env pseudovirus CAP210.2.00.E8. Kind of data set: Single-cycle assay TZM-bl, Env pseudovirus panel.
For data set [15], the system named is HIV-1 panel of Paired Infant (B) and Maternal (M) Env Molecular Clones. Kind of data set: Single-cycle assay, means over Paired Infant and Maternal Env clones.
For data set [16], the system named is HIV-1 Env pseudovirus MG505.W0M.ENV.A2. Kind of data set: Single-cycle assay, Paired Infant and Maternal Env clones.
The subject of data set [17] is HIV-1 Env pseudovirus RHPA4259, clone 7. Put plainly: Single-cycle assay TZM-bl, Env pseudovirus panel.
The test system of data set [18] is TZM-bl cells. Put plainly: Cytotoxicity. Type of data set: cell-based. The following applies: read-out: TZMb-l CC50; TZM-bl cells, 3 days, MTS; mean ± SD, n=3.
A short description of data set [19]: Cytotoxicity. The format is cell-based, human. To be noted: human, MT-2 cells, MT-2 CC50, MT-2 cells, MTS; mean ± SD, n=3.
For data set [20], the system named is HIV-1 Env pseudovirus KNH1144. Kind of data set: Single-cycle assay TZM-bl, Env pseudovirus panel.
For data set [21], the system named is HIV-1IIIB. Put plainly: Multi-cycle infection assay in MT-2 cells. The format is cell-based. The following applies: read-out: MT-2 IC50, p24, mean ± SD, n=3.
Data set [22] is described as follows: Cytotoxicity. Type of data set: cell-based. To be noted: human, TZM-bl cells, TZMb-l CC50, TZM-bl cells, 3 days, MTS; mean ± SD, n=3.
The mark [23] stands for this setting: Human immunodeficiency virus 1, read-out: IC50 Mean ± SEM: Infant (B).
Setting [24] is: Human immunodeficiency virus 1, read-out: IC50 Mean ± SEM: Mother (M).
The mark [25] stands for this setting: Human immunodeficiency virus 1, read-out: IC50 Mean ± SEM: Overall (n=10).

As a reminder, the IC50 is the concentration that inhibits the measured activity by half. Usually CC50 stands for the concentration at which the toxic effect on the cells reaches its halfway point. For `Cc1nc([C@@H](CN)NC(=O)c2ccc(-c3ccc(F)c(F)c3)[nH]2)sc1CO` (single isomer, unassigned) [NBD-14113, reference compound], the IC50 in data set [1] (subtype D, NIH # 11911, QA013.70I.ENV.H1, TZM-bl cells) was found to be 3.5 ± 0.1 µM; in data set [2] (subtype C, NIH # 11500, HIV-00836-2, clone 5, TZM-bl cells) it was 4.3 ± 0.4 µM; in data set [3] (subtype A, NIH # 11887, Q259ENV.W6, TZM-bl cells), 2.1 ± 0.3 µM; in data set [5] (subtype A1/D, NIH # 11901, QA790.204I.ENV.A4, TZM-bl cells) it was 5.5 ± 0.3 µM; in [6] (subtype A, NIH # 11534-M (maternal), MJ613.W0M.ENV.A2) it was 4.9 ± 0.2 µM; in data set [7], 3.8 ± 1.1 µM. In addition, the IC50 in data set [8] (subtype B, NIH # 11022, PVO, clone 4, TZM-bl cells) came to 4 ± 0.3 µM; in data set [9] (read-out: IC50 Mean ± SEM: Overall (n=34), mean over 34 HIV-1 Env pseudoviruses), 3.9 ± 0.17 µM; in data set [9] (read-out: IC50 Mean ± SEM: Subtype A (n=5), mean over subtype A pseudoviruses) it was 3.44 ± 0.36 µM; in data set [9] (read-out: IC50 Mean ± SEM: Subtype B (n=10), mean over subtype B pseudoviruses), 3.79 ± 0.18 µM; in [9] (read-out: IC50 Mean ± SEM: Subtype C (n=7), mean over subtype C pseudoviruses), 4.04 ± 0.43 µM; in data set [9] (read-out: IC50 Mean ± SEM: Subtype D (n=3), mean over subtype D pseudoviruses), 3.5 ± 0.75 µM. Also, the concentration for half-maximal inhibition (IC50) in data set [11] (subtype A, NIH # 11521-B (infant), BJ613.W6M.ENV.E1) was 2.8 ± 0.4 µM; in data set [12] (subtype A1/D, NIH # 11904, QA790.204I.ENV.E2, TZM-bl cells), 3 ± 0.1 µM; in data set [13] (HIV-1 Reverse Transcriptase, mean ± SD, n=3), 45.9 ± 3.6 µM; in data set [14] (subtype C, NIH # 11317, CAP210.2.00.E8, TZM-bl cells), 3.7 ± 0.1 µM; in data set [15] (read-out: IC50 Mean ± SEM: Infant (B), mean over infant clones), 4.3e-06 ± 5e-07 M; in data set [15] (read-out: IC50 Mean ± SEM: Mother, mean over maternal clones), 4e-06 ± 4e-07 M. Further, the half-inhibitory concentration (IC50) came to 4.7 ± 0.8 µM in data set [16] (subtype A, NIH # 11528-M (maternal), MG505.W0M.ENV.A2) and 3.7 ± 0.4 µM in data set [17] (subtype B, NIH # 11036, RHPA4259, clone 7, TZM-bl cells). Moreover, the results for the CC50 in data set [4], in data set [10] and in data set [18] were 96.8 ± 1.8 µM, 47.1 ± 2.6 µM and 84.1 ± 1.3 µM, respectively.
Consider `Cc1nc(C(CN)NC(=O)c2ccc(-c3ccc4c(c3)OCO4)[nH]2)sc1CO` (stereo not drawn) [NBD-14110, N-(2-amino-1-(5-(hydroxymethyl)-4-methylthiazol-2-yl)ethyl)-5-(benzo[d][1,3]dioxol-5-yl)-1H-pyrrole-2-carboxamide], for which the IC50 was found to be 2.9 ± 0.3 µM in data set [1] (TZM-bl); 1.7 ± 0.1 µM in data set [2] (TZM-bl); 1.9 ± 0.2 µM in data set [3] (TZM-bl); 2.1 ± 0.6 µM in [5] (TZM-bl); 4.9 ± 0.1 µM in [6]; 1.4 ± 0.3 µM in data set [8] (TZM-bl). Also, the IC50 came out at 2.8 ± 0.1 µM in data set [11]; 1.5 ± 0.2 µM in data set [12] (TZM-bl); 30.6 ± 2.7 µM in [13]; 5.5 ± 0.4 µM in data set [14] (TZM-bl); 5.9 ± 0.4 µM in [20]; 3.8 ± 1.4 µM in data set [21]. The 50% inhibitory concentration (IC50) in data set [15] (setting [23]) came to 4.8e-06 ± 8e-07 M; in data set [15] (setting [24]), 5.2e-06 ± 6e-07 M; in data set [15] (setting [25]), 5e-06 ± 5e-07 M; in data set [16], 6.1 ± 0.5 µM; in data set [17] (TZM-bl), 2.8 ± 0.3 µM. In data set [19], this molecule displayed a cytotoxic concentration (CC50) at 4 days of 193 ± 6.3 µM. In data set [22], this molecule had a CC50 at 3 days of 146 ± 7.6 µM.
For `NCC(NC(=O)c1ccc(-c2ccc3c(c2)OCO3)[nH]1)c1ncc(CO)s1` (stereo not drawn) [NBD-14123, N-(2-amino-1-(5-(hydroxymethyl)thiazol-2-yl)ethyl)-5-(benzo[d][1,3]dioxol-5-yl)-1H-pyrrole-2-carboxamide], the 50% inhibitory concentration (IC50) is 2.5 ± 0.4 µM in data set [1] (TZM-bl); 3.2 ± 0.2 µM in [2] (TZM-bl); 2.3 ± 0.2 µM in data set [3] (TZM-bl); 1.6 ± 0.1 µM in [5] (TZM-bl); 4 ± 0.1 µM in data set [6]; 1.9 ± 0.2 µM in [8] (TZM-bl). Besides, the 50% inhibitory concentration (IC50) was 2.5 ± 0.1 µM in data set [11]; 2.5 ± 0.3 µM in data set [12] (TZM-bl); 39.5 ± 2.8 µM in [13]; 5.3 ± 0.2 µM in data set [14] (TZM-bl); 4.1 ± 0.4 µM in data set [20]; 4.2e-06 ± 6e-07 M in [15] (setting [23]). Also, the IC50 in [15] (setting [24]) was determined as 4.1e-06 ± 4e-07 M; in data set [15] (setting [25]), 4.2e-06 ± 3e-07 M; in [16], 3.7 ± 0.2 µM; in data set [17] (TZM-bl) it was 3.1 ± 0.7 µM. In data set [19], half-maximal cytotoxicity (CC50 at 4 days) was put at 192 ± 2.6 µM. In data set [22], it took 142 ± 2.6 µM to reach half-maximal cytotoxicity (CC50 at 3 days).
On to `CNCC(NC(=O)c1ccc(-c2ccc3c(c2)OCO3)[nH]1)c1nc(CO)cs1` (stereo not drawn) [NBD-14159, 5-(benzo[d][1,3]dioxol-5-yl)-N-(1-(4-(hydroxymethyl)thiazol-2-yl)-2-(methylamino)ethyl)-1H-pyrrole-2-carboxamide], for which the half-inhibitory concentration (IC50) worked out at 4.3 ± 0.7 µM in [1] (TZM-bl); 4.9 ± 0.3 µM in data set [2] (TZM-bl); 1.3 ± 0.2 µM in [3] (TZM-bl); 4 ± 0.4 µM in data set [5] (TZM-bl); 3.1 ± 0.3 µM in data set [6]; 4.3 ± 0.7 µM in data set [8] (TZM-bl). In addition, the IC50 in [11] is 3 ± 0.1 µM; in [12] (TZM-bl) it was 3.2 ± 0.2 µM; in data set [14] (TZM-bl) it was 3.5 ± 0.2 µM; in data set [20] it was 4 ± 0.3 µM; in [21] it was 2.98 ± 0.1 µM; in [15] (setting [23]), 4e-06 ± 3e-07 M. Besides, the concentration for half-maximal inhibition (IC50) in data set [15] (setting [24]) was found to be 3.8e-06 ± 5e-07 M; in data set [15] (setting [25]), 3.9e-06 ± 3e-07 M; in [16] it was 4.6 ± 0.1 µM; in [17] (TZM-bl) it was 3.7 ± 0.4 µM. The CC50 in data set [4] turned out to be 180 ± 2 µM; in data set [18], 95.8 ± 1.4 µM.
